The text below walks through data of patent US10765696B2, “Compositions of and methods of treatment with zwitterionic polysaccharide” (City of Hope, priority 2015, dated 2020).

Where only a bound is given, the exact number is not on record here.

For one test, the system named is B cells. As to the kind of experiment: Splenic B cell phenotype in treated HSV infected mice. It counts as in vivo, mouse. Conditions: six oral doses of PSA, ACV from day 4 pi, spleen day 6 pi.
Another test has as its system T cells. The test can be described thus: Flow cytometry of T cells (phenotype, tetramer, intracellular cytokines) from treated HSV infected mice.
Another test deals with monocytes. As to the kind of experiment: Monocyte degranulation (CD107a/b), blood and spleen of treated HSV infected mice. The conditions noted are these: monocytes from blood and spleen, day 6 post-infection.
Another test has as its system T and B cells. As to the kind of experiment: Immune cell analysis in uninfected WT mice during/after oral PSA treatment. The class given is in vivo, mouse. The source says:
PSA increases IL-10 secreting T and B cells, as depicted in FIGS. 14A-14B.
Line plots showing CD39, CD73 and ICOS surface expression on CD4 and CD8 T cells isolated from mesenteric LN (MLN) of uninfected WT mice at indicated times during oral PSA treatment are depicted in FIGS. 16A-16B. FIG. 16A depicts CD4 T cells isolated from MLN of uninfected WT mice at indicated times during oral PSA treatment. FIG. 16B depicts CD8 T cells isolated from MLN of uninfected WT mice at indicated times during oral PSA treatment.

Another test concerns HSV-1 strain 17+. As to the kind of experiment: HSV encephalitis (HSE) survival model, corneal scarification. It counts as in vivo, mouse. The method, then: 129S6 Wild Type (WT), 129 FoxP3-GFP and IL-10 knock-out (KO) mice were bred. Male and female mice aged 6-10 weeks were infected with HSV-1 strain 17+ (HSV).
Prophylactic administration: six doses of 50 μg of PSA in sterile PBS was given as indicated-orally (PO), or intra-peritoneally (IP) over 3 weeks prior to HSV infection. Additionally, six doses of PSA were given IP on 9 days before HSV infection, 6 days before HSV infection, 3 days before HSV infection, day 0 of HSV infection (i.e., on the day of infection), 2 days post-infection, and 4 days post-infection. Mice received either PBS or the anti-viral drug acyclovir (ACV) from day 4 to 10 post-infection at 50 mg/kg. Therapeutic administration: PSA was administered on days 1, 3 and 6 post HSV infection by PO, IP or intravenous injection (IV) along with ACV beginning day 4-10 post-infection (pi).
The post-infection therapeutic regimen included PSA administered day 1, day 3, day 6 post-infection, with ACV administered from day 4 post-infection. At day 4 post-HSV infection, 1.25 mg of ACV was given per mouse by IP injections daily for 7 days. […] 129 WT or Rag mice were given PSA as indicated in FIG. 3A prior to the infection. ACV was given starting at day 4 post-infection (FIG. 3B).

Test [1] relates to DCs, PMNs, CD45+ intra-epithelial lymphocytes. The test can be described thus: Binding of fluorescent PSA to immune cells after oral gavage. It counts as in vivo, mouse. Conditions: ileum of 129 WT or Rag mice.
A further test has as its system HSV 17+ strain. The test can be described thus: Flow cytometry of infiltrating leukocytes in brainstem (CNS inflammation) at day 6 pi.

Consider “Bacteroides fragilis (B. fragilis) capsular polysaccharide A (PSA)”, for which the “splenic B cell phenotype (CD138)” value with B cells is on record as “the majority of B cells express a highly activated secretory plasmablast phenotype”. Moreover, the “CD4+ ICOS+ T cells in the spleen” value in the test with T cells (129 WT mice, spleen) is 56%. Also, the “CD4+ ICOS+ T cells that produced IL-10” value with T cells (PMA+ ionomycin stimulation) is on record as “Approximately 10%”. For the same compound, in the test on T cells (cervical lymph nodes, HSV infected WT mice, ACV from d4, day 6 pi), the “phenotype of FoxP3 Tregs (CD25, CD103)” value is on record as “functional phenotype”. For the same compound, the “CD62Llow CD4 T cells that were ICOS+” value in the test with T cells (oral PSA, blood and spleen, day 6 post-infection) amounted to 56%. Moreover, the “virus specific spleen CD8 T cells that were CD103+” value in the test with T cells (six oral doses of PSA, ACV from day 4, spleen day 6 post-infection) is recorded as over 70%. Also, the “CD4s that secrete IL-10 in response to stimulation” value in the test with T cells (six oral doses of PSA, ACV from day 4, spleen day 6 post-infection, PMA+ionomycin) is on record as “about 11%”. Also, the “frequency of Tregs” value in the test with T cells (spleen or BS) is “No change”. In addition, in the test with monocytes, the “degranulation of monocytes following stimulation with HSV antigen” value was “limited degranulation” and the “spontaneous degranulation of monocytes” value is given as “reduced spontaneous degranulation”. The “IL-10 secreting T and B cells” value with T and B cells (MLN and spleen of uninfected WT mice after 6 doses of oral PSA) was “increases”. Moreover, the “accumulation of regulatory T cells (CD39, CD73, ICOS expression)” value with T and B cells (mesenteric lymph nodes of uninfected WT mice during oral PSA treatment) is recorded as “increases accumulation”. Also, in the test with HSV-1 strain 17+ (HSV 17+ strain, ACV from day 4 pi), the “survival of PSA treated B cell knockout mice or 129 Rag recipients of CD4 T cells, CD8 T cells or B cells” value was “B cells and T cells are essential for PSA mediated protection”. Further, the “protection against HSV infection” value in the test with HSV-1 strain 17+ (PSA IP therapeutically day 1, day 3, day 6 with ACV from day 4 post-infection) is listed as “also did not protect against HSV infection”. The “development of fatal HSE” value in the test with HSV-1 strain 17+ (mice pretreated with purified PSA prior to the HSV-1 infection, control PBS) is listed as “prevented the development of fatal HSE”. The “protection against HSV infection” value in the test with HSV-1 strain 17+ (six doses of 50 μg PSA prior to and during infection (or day -8 to +4 regimen, or day 1, 3, 6 pi), ACV 1.25 mg IP daily for 7 days from day 4 pi) is listed as “did not protect against HSV infection”. The “IL-10 secretion from PSA stimulated CD45+ IEL” value in test [1] is given as “induce IL-10 secretion by CD45+ IEL T cells in wild type but not Rag mice”. The “CNS inflammation (% CD45high infiltrates, Ly6Chigh CD11b+ inflammatory monocytes in brainstem)” value in the test with HSV 17+ strain (129 Rag mice, ACV from day 4 pi, brainstem day 6 pi) was “does not reduce CNS inflammation”. Also, the “CNS inflammation (infiltrating leukocytes in brainstem)” value with HSV 17+ strain (129 WT mice, ACV from day 4 pi, brainstem day 6 pi) was “reducing CNS inflammation”. Moreover, in the test on HSV 17+ strain (129 WT mice, brainstem), the “CD8+ in brainstem that were CD103+” value was “majority” and the “CD8+ virus specific based on tetramer staining” value is recorded as “Greater than 70%”.

Regarding `Nc1nc2c(ncn2COCCO)c(=O)[nH]1` [ACV, acyclovir, reference compound], the “prevention of lethal HSV encephalitis (HSE)” value in the test with HSV-1 strain 17+ (129 WT mice, ACV given at day 4 post infection) was “Cannot Prevent Lethal HSV Encephalitis (HSE)”.
